Reference: patent publication US9315518B2, “Imidazopyridin-2-one derivatives” (Merck Sharp & Dohme Corp., priority 2011, dated 2016)

Target: recombinant human mGluR2 (Homo sapiens (Human), UniProt Q14416)
Assay: FLIPR Ca2+ mobilization assay, potentiation of glutamate response
Format: cell-based
Conditions: CHO dhfr- cells expressing human mGluR2 and Gα16; potentiation with EC20 glutamate (900 nM); read-out: hFLIPR pot. EC50
Method: Inhibition constants are determined as follows. The compounds of the present invention may be tested in a […] (FLIPR) based assay. This assay is a common functional assay to monitor Ca^2+ mobilization in whole cells expressing recombinant receptor coupled with a promiscuous G-protein. CHO dhfr-cells stably expressing recombinant human mGluR2 and Gα16 loaded with Fluo-4 AM (Invitrogen, Carlsbad Calif.) are treated with dose responses of compounds and the Ca^2+ response is monitored on a FLIPR384 (Molecular Devices, Sunnydale Calif.) for agonist activity. The potentiation response is monitored after a subsequent addition of an EC20 concentration of glutamate (900 nM). The maximum calcium response at each concentration of compound for agonist or potentiation are plotted as dose responses and the curves are fitted with a four parameters logistic equation giving EC50 and Hill coefficient using the iterative non linear curve fitting software program.

recombinant human mGluR2, sequence (Q14416 19-872): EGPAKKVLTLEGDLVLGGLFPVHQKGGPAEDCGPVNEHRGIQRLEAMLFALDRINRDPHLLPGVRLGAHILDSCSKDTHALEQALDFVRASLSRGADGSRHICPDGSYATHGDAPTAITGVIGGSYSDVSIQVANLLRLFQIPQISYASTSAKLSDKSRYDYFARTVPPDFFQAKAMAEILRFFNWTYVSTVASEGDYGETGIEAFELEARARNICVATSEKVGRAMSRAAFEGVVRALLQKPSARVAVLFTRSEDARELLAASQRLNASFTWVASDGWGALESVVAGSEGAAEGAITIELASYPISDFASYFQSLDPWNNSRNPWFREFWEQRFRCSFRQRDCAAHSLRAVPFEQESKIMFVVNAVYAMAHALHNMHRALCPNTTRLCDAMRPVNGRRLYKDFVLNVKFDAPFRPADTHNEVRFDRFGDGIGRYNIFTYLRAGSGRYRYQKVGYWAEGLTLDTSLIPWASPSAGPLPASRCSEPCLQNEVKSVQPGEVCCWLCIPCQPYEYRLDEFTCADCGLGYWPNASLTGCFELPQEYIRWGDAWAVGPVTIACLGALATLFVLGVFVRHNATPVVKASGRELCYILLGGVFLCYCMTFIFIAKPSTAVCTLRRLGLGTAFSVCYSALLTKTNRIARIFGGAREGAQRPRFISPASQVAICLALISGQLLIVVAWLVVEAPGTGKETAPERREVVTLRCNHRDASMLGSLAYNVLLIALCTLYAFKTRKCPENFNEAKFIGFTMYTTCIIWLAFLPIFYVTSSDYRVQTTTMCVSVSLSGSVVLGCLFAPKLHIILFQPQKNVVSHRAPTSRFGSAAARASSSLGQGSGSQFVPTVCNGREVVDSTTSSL

| SMILES | EC50 [nM] |
| --- | --- |
| CN1c2nc(C3CCCNC3)ccc2N(CC2CC2(F)F)S1(=O)=O (stereo not shown) [Compound 25-5, 1-[(2,2-difluorocyclopropyl)methyl]-3-methyl-5-piperidin-3-yl-1,3-dihydro[1,2,5] thiadiazolo[3,4-b]pyridine 2,2-dioxide] | 359 |
| CN1c2nc(C3=CC4CN(C(=O)C(C)(C)O)CC4C3)ccc2N(CC2CC2(F)F)S1(=O)=O (stereo not shown) [Compound 24-7, 1-[5-{1-[(2,2-difluorocyclopropyl)methyl]-3-methyl-2,2-dioxido-1,3-dihydro[1,2,5]thiadiazolo[3,4-b]pyridin-5-yl}-3,3a,4,6a-tetrahydrocyclopenta [c]pyrrol-2(1H)-yl]-2-methyl-1-oxopropan-2-ol] | 48.5 |
| CN1c2nc(C3=CCN(C(=O)c4ccon4)C3)ccc2N(CC2CC2(F)F)S1(=O)=O (stereo not shown) [Compound 24-20, 1-[(2,2-difluorocyclopropyl)methyl]-5-[1-(isoxazol-3-ylcarbonyl)-2,5-dihydro-1H-pyrrol-3-yl]-3-methyl-1,3-dihydro[1,2,5] thiadiazolo[3,4-b]pyridine 2,2-dioxide] | 177 |
| Cn1c(=O)n(CC2CC2(F)F)c2ccc(C3=CC4CN(C(=O)c5ncco5)CC4C3)nc21 (stereo not shown) [Compound 14-6, 1-[(2,2-difluoro-cyclopropyl)methyl]-3-methyl-5-[2-(1,3-oxazol-2-ylcarbonyl)-1,2,3,3a,4,6a-hexahydrocyclo-penta[c]pyrrol-5-yl]-1,3-dihydro-2H-imidazo[4,5-b]pyridin-2-one] | 123 |
| CC1C(c2ccc3c(n2)N(C)S(=O)(=O)N3CC2CC2(F)F)C1C(C)(C)O (stereo not shown) [Compound 34-3, 2-(2-{1-[(2,2-difluorocyclopropyl)methyl]-3-methyl-2,2-dihydro[1,2,5]thiadiazolo[3,4-b]pyridin-5-yl}-3-methylcyclopropyl) propan-2-ol] | 14.4 |
| Cn1cnc(C(=O)NCCCCc2ccc3c(n2)n(C)c(=O)n3CC(C)(C)C)c1 [Compound 38-5, N-{4-[1-(2,2-dimethylpropyl)-3-methyl-2-oxo-2,3-dihydro-1H-imidazo[4,5-b]pyridin-5-yl]butyl}-1-methyl-1H-imidazole-4-carboxamide] | 1180 |
| Cn1c(=O)n(CC(C)(C)C)c2ccc(C3CCC(C)(C)C(NC(=O)c4ccc(OC(F)(F)F)cc4)C3)nc21 (stereo not shown) [Compound 18-42, N-{5-[1-(2,2-dimethylpropyl)-3-methyl-2-oxo-2,3-dihydro-1H-imidazo[4,5-b]pyridin-5-yl]-2,2-dimethylcyclohexyl}-4-(trifluoro-methoxy)benzamide] | 986 |
| Cn1c(=O)n(CC2CC2(F)F)c2ccc(C3=CC4CCC3CN4C(=O)c3ccon3)nc21 (stereo not shown) [Compound 6-4, 1-[(2,2-Difluorocyclopropyl)methyl]-5-[2-(isoxazol-3-ylcarbonyl)-2-azabicyclo-[2.2.2]oct-5-en-5-yl]-3-methyl-1,3-dihydro-2H-imidazo[4,5-b]pyridin-2-one] | 29 |
| Cn1c(=O)n(CC(C)(C)C)c2ccc(C3CCC(C)(C)C(NC(=O)CCn4cncn4)C3)nc21 (stereo not shown) [Compound 18-10, N-{5-[1-(2,2-dimethylpropyl)-3-methyl-2-oxo-2,3-dihydro-1H-imidazo[4,5-b]pyridin-5-yl]-2,2-dimethylcyclohexyl}-3-(1H-1,2,4-triazol-1-yl)propanamide] | 2190 |
| Cc1cccc(S(=O)(=O)NC2CC(c3ccc4c(n3)n(C)c(=O)n4CC(C)(C)C)CCC2(C)C)c1 (stereo not shown) [Compound 19-62, N-{5-[1-(2,2-dimethylpropyl)-3-methyl-2-oxo-2,3-dihydro-1H-imidazo[4,5-b]pyridin-5-yl]-2,2-dimethylcyclohexyl}-3-methylbenzenesulfonamide] | 116 |

Results, then the compound that gave them:

| EC50 [nM] | SMILES |
| --- | --- |
| 134 | Cn1c(=O)n(CC(C)(C)C)c2ccc(C3=CC4CN(C(=O)C5(O)CCC5)CC4C3)nc21 (stereo not shown) [Compound 8-14, 1-(2,2-dimethylpropyl)-5-{2-[(1-hydroxycyclobutyl)carbonyl]-1,2,3,3a,4,6a-hexahydrocyclopenta[c]pyrrol-5-yl}-3-methyl-1,3-dihydro-2H-imidazo[4,5-b]pyridin-2-one] |
| 22.8 | Cn1c(=O)n(CC(C)(C)C)c2ccc(C3=CC4CCC3CN4C(=O)c3ncco3)nc21 (stereo not shown) [Compound 2-34, 1-(2,2-dimethylpropyl)-3-methyl-5-[2-(1,3-oxazol-2-ylcarbonyl)-2-azabicyclo[2.2.2]oct-5-en-5-yl]-1,3-dihydro-2H-imidazo[4,5-b]pyridin-2-one] |
| 322 | Cn1c(=O)n(CC(C)(C)C)c2ccc(C3CC4CCC3CN4C(=O)c3ccon3)nc21 (stereo not shown) [Compound 5-2, 1-(2,2-Dimethylpropyl)-5-[2-(isoxazol-3-ylcarbonyl)-2-azabicyclo[2.2.2]-oct-5-yl]-3-methyl-1,3-dihydro-2H-imidazo[4,5-b]pyridin-2-one] |
| 28.1 | Cn1c(=O)n(CC(C)(C)C)c2ccc(C3=CC4CCC3CN4C(=O)c3csnn3)nc21 (stereo not shown) [Compound 2-8, 1-(2,2-dimethylpropyl)-3-methyl-5-[2-(1,2,3-thiadiazol-4-ylcarbonyl)-2-azabicyclo[2.2.2]oct-5-en-5-yl]-1,3-dihydro-2H-imidazo[4,5-b]pyridin-2-one] |
| 333 | Cn1c(=O)n(CC(C)(C)C)c2ccc(C3=CCC(NC(=O)C4CCCO4)CC3)nc21 (stereo not shown) [Compound 17-20, N-{4-[1-(2,2-dimethylpropyl)-3-methyl-2-oxo-2,3-dihydro-1H-imidazo[4,5-b]pyridin-5-yl]cyclohex-3-en-1-yl}tetrahydrofuran-2-carboxamide] |
| 100 | Cn1c(=O)n(CC(C)(C)C)c2ccc(C3=CC4CCC3CN4C(=O)c3cccnc3)nc21 (stereo not shown) [Compound 2-9, 1-(2,2-dimethylpropyl)-3-methyl-5-[2-(pyridin-3-ylcarbonyl)-2-azabicyclo[2.2.2]oct-5-en-5-yl]-1,3-dihydro-2H-imidazo[4,5-b]pyridin-2-one] |
| 56.1 | Cn1c(=O)n(CC(C)(C)C)c2ccc(C3=CC4CCC3CN4C(=O)Cn3cncn3)nc21 (stereo not shown) [Compound 2-22, 1-(2,2-dimethylpropyl)-3-methyl-5-[2-(1H-1,2,4-triazol-1-ylacetyl)-2-azabicyclo[2.2.2]oct-5-en-5-yl]-1,3-dihydro-2H-imidazo[4,5-b]pyridin-2-one] |
| 513 | Cn1c(=O)n(CC(C)(C)C)c2ccc(C3=CC4CN(C(=O)C5(O)CCN(C(=O)OC(C)(C)C)C5)CC4C3)nc21 (stereo not shown) [Compound 8-6, tert-butyl 3-({5-[1-(2,2-dimethylpropyl)-3-methyl-2-oxo-2,3-dihydro-1H-imidazo[4,5-b]pyridin-5-yl]-3,3a,4,6a-tetrahydrocyclopenta[c]pyrrol-2(1H)-yl}carbonyl)-3-hydroxypyrrolidine-1-carboxylate] |
| 17.9 | Cn1c(=O)n(CC(C)(C)C)c2ccc(C3=CC4CN(C(=O)c5ncco5)CC4C3)nc21 (stereo not shown) [Compound 8-38] |
| 43.2 | Cn1c(=O)n(CC(C)(C)C)c2ccc(C3CCC(C)(C)C(NC(=O)c4cnsn4)C3)nc21 (stereo not shown) [Compound 18-200, N-{5-[1-(2,2-dimethylpropyl)-3-methyl-2-oxo-2,3-dihydro-1H-imidazo[4,5-b]pyridin-5-yl]-2,2-dimethylcyclohexyl}-1,2,5-thiadiazole-3-carboxamide] |
| 391 | Cn1c(=O)n(CC(C)(C)C)c2ccc(C3CC4CN(C(=O)c5ncc[nH]5)CC4C3)nc21 (stereo not shown) [Compound 11-5, 1-(2,2-dimethylpropyl)-5-[2-(1H-imidazol-2-ylcarbonyl)octahydrocyclo-penta[c]pyrrol-5-yl]-3-methyl-1,3-dihydro-2H-imidazo[4,5-b]pyridin-2-one] |
| 64.1 | Cn1c(=O)n(CC(C)(C)C)c2ccc(C3=CC4CCC3CN4C(=O)C3CC3)nc21 (stereo not shown) [Compound 2-16, 5-[2-(cyclopropylcarbonyl)-2-azabicyclo[2.2.2]oct-5-en-5-yl]-1-(2,2-dimethylpropyl)-3-methyl-1,3-dihydro-2H-imidazo[4,5-b]pyridin-2-one] |
| 951 | Cn1cnc(S(=O)(=O)N2CCCC(c3ccc4c(n3)n(C)c(=O)n4CC(C)(C)C)C2)c1 (stereo not shown) [Compound 19-4, 1-(2,2-dimethylpropyl)-3-methyl-5-{1-[(1-methyl-1H-imidazol-4-yl)sulfonyl]piperidin-3-yl}-1,3-dihydro-2H-imidazo[4,5-b]pyridin-2-one] |
| 594 | Cn1c(=O)n(CC(C)(C)C)c2ccc(C3=CCC(C(=O)NCc4ncco4)CC3)nc21 (stereo not shown) [Compound 17-15, 4-[1-(2,2-dimethylpropyl)-3-methyl-2-oxo-2,3-dihydro-1H-imidazo[4,5-b]pyridin-5-yl]-N-(1,3-oxazol-2-ylmethyl)cyclohex-3-ene-1-carboxamide] |
| 270 | Cn1c(=O)n(CC(C)(C)C)c2ccc(C3=CC4CN(C(=O)CO)CC4C3)nc21 (stereo not shown) [Compound 8-9, 1-(2,2-dimethylpropyl)-5-[2-(hydroxyacetyl)-1,2,3,3a,4,6a-hexahydrocyclopenta[c]pyrrol-5-yl]-3-methyl-1,3-dihydro-2H-imidazo[4,5-b]pyridin-2-one] |
